Patent US9556152B2, “Heterocyclic amides as kinase inhibitors” (GlaxoSmithKline Intellectual Property Development Limited, priority 2013, dated 2017)
Read-outs that look alike come from different tables or passages of the source.

Tests used:
[1] = tested on: mouse TNF and zVAD induced temperature loss in mice; assay: TNF/zVAD-driven systemic inflammatory response syndrome model (short modality), temperature loss; type: in vivo
Procedure: (§1) TNF (or TNF/zVAD) induced manifestations include temperature loss, the production of numerous cytokines (including IL-6, IL-1b, MIP1β and MIP2) in the periphery, liver and intestinal inflammation and an increase of markers of cellular (LDH and CK) and liver damage (AST and ALT) in the serum.
Each test compound is run through the TNF/zVAD and TNF (alone) versions of the model. For example, mice (7 mice per group) were orally pre-dosed with vehicle or test compound at 50 mg/kg 15 minutes before i.v. administration of mouse TNF (30 m/mouse) and zVAD (0.4 mg/mouse) simultaneously. Temperature loss in the mice was measured by rectal probe. The study was terminated when the control group lost 7 degrees, per our IACUC protocol. […] All data are shown as means±standard error of the mean.

[2] = molecular target: T1, RIP1 kinase (GST-RipK1 (1-375)) (Homo sapiens, UniProt Q13546)
T1 sequence (Q13546 1-375): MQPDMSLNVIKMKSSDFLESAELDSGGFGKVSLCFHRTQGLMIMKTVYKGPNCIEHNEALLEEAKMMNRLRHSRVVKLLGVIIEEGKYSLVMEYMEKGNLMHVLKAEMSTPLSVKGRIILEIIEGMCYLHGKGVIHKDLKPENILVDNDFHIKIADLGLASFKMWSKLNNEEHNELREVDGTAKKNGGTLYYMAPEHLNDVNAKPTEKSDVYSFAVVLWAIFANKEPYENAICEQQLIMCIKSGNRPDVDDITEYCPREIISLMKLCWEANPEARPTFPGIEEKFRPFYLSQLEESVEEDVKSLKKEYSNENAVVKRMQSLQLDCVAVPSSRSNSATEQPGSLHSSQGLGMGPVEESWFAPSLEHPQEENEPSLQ
Procedure: A fluorescent polarization based binding assay was developed to quantitate interaction of novel test compounds at the ATP binding pocket of RIP1, by competition with a fluorescently labeled ATP competitive ligand. […] Following the incubation, 5 ul of the fluorescent labeled ligand solution, was added to each reaction, at twice the final assay concentration, and incubated at room temperature for at least 15 minutes. Finally, samples were read on an instrument capable of measuring fluorescent polarization. Test compound inhibition was expressed as percent (%) inhibition of internal assay controls. For concentration response experiments, normalized data were fit and pIC50s determined using conventional techniques.

[3] = tested on: mouse TNF induced temperature loss in mice; assay: TNF (alone)-driven systemic inflammatory response syndrome model (long modality), temperature loss; type: in vivo; settings: oral pre-dose 50 mg/kg 15 minutes before i.v. mouse TNF
Procedure: as §1
In addition to the TNF/zVAD model, each compound is also tested in a TNF alone model. For the TNF (alone) version of the model, mice (7 mice per group) were orally pre-dosed with vehicle or test compound at 50 mg/kg 15 minutes before i.v. administration of mouse TNF (30 m/mouse). […] All data are shown as means±standard error of the mean.

[4] = oral pre-dose 10 mg/kg 15 minutes before i.v. mouse TNF and zVAD
[5] = mean pIC50, FP competition binding, GST-RipK1 (1-375) 10 nM, fluorescent ligand 5 nM, mean of minimum 2 experiments
[6] = oral pre-dose 30 mg/kg 15 minutes before i.v. mouse TNF and zVAD
[7] = average pIC50 after continued testing, FP competition binding, updated average after continued testing

Row | IC50 [2, 5] [nM] | SMILES | % Inhibition [1, 6] [%] | further results
1 | ~12.6 | O=C(N[C@H]1CCc2cc(Br)ccc2NC1=O)c1nnc(Cc2ccccc2)[nH]1 [Example 163, (S)-5-benzyl-N-(7-bromo-2-oxo-2,3,4,5-tetrahydro-1H-benzo[b]azepin-3-yl)-4H-1,2,4-triazole-3-carboxamide] |  | % Inhibition [1, 4]: 73%
2 |  | O=C(N[C@H]1CCc2ccccc2NC1=O)c1cc(Cc2ccccc2)on1 [Example 236, (S)-5-benzyl-N-(2-oxo-2,3,4,5-tetrahydro-1H-benzo[b]azepin-3-yl)isoxazole-3-carboxamide] | 23 | 
3 |  | CN1C(=O)[C@@H](NC(=O)c2cc(Oc3ccccc3)ccn2)COc2ccccc21 [Example 97, (S)-N-(5-methyl-4-oxo-2,3,4,5-tetrahydrobenzo[b] [1,4]oxazepin-3-yl)-4-phenoxypicolinamide] | 70 | 
4 | ~63.1 | Cc1nnc(-c2ccc3c(c2)N(C)C(=O)[C@@H](NC(=O)c2nnc(Cc4ccccc4)[nH]2)CO3)o1 [Example 169, (S)-5-benzyl-N-(5-methyl-7-(5-methyl-1,3,4-oxadiazol-2-yl)-4-oxo-2,3,4,5-tetrahydrobenzo[b][1, 4]oxazepin-3-yl)-4H-1,2,4-triazole-3-carboxamide] |  | IC50 [2, 7]: 50.1 nM
5 |  | CN1C(=O)[C@@H](NC(=O)c2ncn(Cc3ccccc3)n2)COc2ccccc21 [Example 45, (S)-1-benzyl-N-(5-methyl-4-oxo-2,3,4,5-tetrahydrobenzo[b] [1,4]oxazepin-3-yl)-1H-1,2,4-triazole-3-carboxamide] |  | % Inhibition [1, 4]: 91%
6 |  | CN1C(=O)[C@@H](NC(=O)c2cc(Cc3ccccc3)n[nH]2)COc2ccc(Br)cc21 [Example 20, (S)-3-benzyl-N-(7-bromo-5-methyl-4-oxo-2,3,4,5-tetrahydrobenzo[b] [1,4]oxazepin-3-yl)-1H-pyrazole-5-carboxamide] | 52 | % Inhibition [3]: 51%
7 |  | Cc1ccc(Cc2cc(C(=O)N[C@H]3CNc4ccccc4N(C)C3=O)n[nH]2)cc1 [Example 64, (S)-N-(1-methyl-2-oxo-2,3,4,5-tetrahydro-1H-benzo[b][1,4]diazepin-3-yl)-5-(4-methylbenzyl)-1H-pyrazole-3-carboxamide] | 62 | 
8 | ~15.8 | Cc1cc(F)c2c(c1)OC[C@H](NC(=O)c1nnc(CC3CCCC3)[nH]1)C(=O)N2 [Example 102, (S)-5-(cyclopentylmethyl)-N-(6-fluoro-8-methyl-4-oxo-2,3,4,5-tetrahydrobenzo[b] [1,4]oxazepin-3-yl)-4H-1,2,4-triazole-3-carboxamide] |  | 
9 |  | CN1C(=O)[C@@H](NC(=O)c2cc(Cc3ccc(F)cc3)n[nH]2)COc2ccccc21 [Example 125, (S)-3-(4-fluorobenzyl)-N-(5-methyl-4-oxo-2,3,4,5-tetrahydrobenzo[b] [1,4]oxazepin-3-yl)-1H-pyrazole-5-carboxamide] | 25 | 
10 |  | CN1C(=O)[C@@H](NC(=O)c2cc(Cc3ccccc3)[nH]n2)CNc2ccccc21 [Example 190, (S)-5-benzyl-N-(1-methyl-2-oxo-2,3,4,5-tetrahydro-1H-benzo[b] [1,4]diazepin-3-yl)-1H-pyrazole-3-carboxamide] | 85 | % Inhibition [3]: 56%
11 | ~25.1 | CN1C(=O)[C@@H](NC(=O)c2nnc(Cc3ccccc3)[nH]2)COc2cccc(F)c21 [Example 91, (S)-5-benzyl-N-(6-fluoro-5-methyl-4-oxo-2,3,4,5-tetrahydrobenzo[b] [1,4]oxazepin-3-yl)-4H-1,2,4-triazole-3-carboxamide] |  | 
12 |  | Cc1ccc(Cc2cc(C(=O)N[C@H]3COc4ccccc4N(C)C3=O)[nH]n2)cc1 [Example 176, (S)-N-(5-methyl-4-oxo-2,3,4,5-tetrahydrobenzo[b] [1,4]oxazepin-3-yl)-5-(4-methylbenzyl)-1H-pyrazole-3-carboxamide] | 34 | 
13 |  | CN1C(=O)[C@@H](NC(=O)c2cc(Cc3ccccc3)n[nH]2)COc2ccccc21 [Example 108, (S)-3-benzyl-N-(5-methyl-4-oxo-2,3,4,5-tetrahydrobenzo[b] [1,4]oxazepin-3-yl)-1H-pyrazole-5-carboxamide] | 56 | 
14 |  | CN1C(=O)[C@@H](NC(=O)c2cc(Cc3ccccc3)on2)CNc2ccccc21 [Example 235, (S)-5-benzyl-N-(1-methyl-2-oxo-2,3,4,5-tetrahydro-1H-benzo[b] [1,4]diazepin-3-yl)isoxazole-3-carboxamide] | 58 | % Inhibition [3]: 73%

Row | SMILES | IC50 [2, 5] [nM] | % Inhibition [1, 6] [%] | further results
15 | O=C(N[C@H]1CCc2cc(Cl)ccc2NC1=O)c1nnc(Cc2ccccc2)[nH]1 [Example 161, (S)-5-benzyl-N-(7-chloro-2-oxo-2,3,4,5-tetrahydro-1H-benzo[b]azepin-3-yl)-4H-1,2,4-triazole-3-carboxamide] | ~12.6 |  | % Inhibition [3]: 82%; % Inhibition ([1]; oral pre-dose 50 mg/kg 15 minutes before i.v. mouse TNF and zVAD): 85%; IC50 [2, 7]: 20 nM
